# Source: patent publication US6403810B2, “Thiophene derivatives” (Hoffmann-La Roche Inc., priority 2000, dated 2002)
# Tests used:
# [1] = test system: rat elastase-induced emphysema; assay: Repair of alveoli in elastase-induced emphysema (rat model); assay type: in vivo, male Sprague Dawley rats; conditions: oral, once daily starting 21 days post elastase injury, morphometric analysis of lung sections
# Protocol: A RAR selective agonist according to the invention was evaluated for its effects on alveolar repair in a rat model for rat elastase-induced emphysema in accordance to D. Massaro et al. Nature Medicine1997, 3, 675. Animals were divided into treatment groups of approximately eight. Lung inflammation and alveolar damage was induced in male Sprague Dawley rats by a single instillation of pancreatic elastase(porcine derived, Calbiochem) 2 U/gram body mass. Three weeks post injury, all-trans retinoic acid or RAR agonist test compound was dissolved in dimethyl-sulfoxide (20 mg/ml) and stored at −20 C. Fresh working stocks were prepared daily by dilution in PBS to a final concentration of 2mg/ml. Animals were dosed once daily with the retinoid by intraperitoneal injection or orally, starting 21 days post injury. Control groups were challenged with elastase and 21 days later treated with Vehicle (DMSO/PBS) for 14 days. Animals were sacrificed 24 hours after the last dose by exsanguination under deep anesthesia.
# The lungs were inflated with 10% neutral buffered formalin by intratracheal instillation at a constant rate (1 ml/gram body mass/min). The lung was excised and immersed in fixative for 24 hours prior to processing. Standard methods were used to prepare 5 μm paraffin sections. Sections were stained with Hematoxylin and Eosin (H%E). Computerized Morphometric analysis was performed to determine the average alveolar size and alveolar number.
melting point [°C],Compound,% repair area ([1]; dose 0.0001 mg/kg) [%],% repair area ([1]; dose 0.001 mg/kg) [%],% repair area ([1]; dose 0.01 mg/kg) [%],% repair area ([1]; dose 0.1 mg/kg) [%]
,"CCCCCCc1cc2c(cc1/C=C/c1ccc(C(=O)O)s1)C(C)(C)CCC2(C)C [Example 9, (E)-5-[2-(3-Hexyl-5,5,8,8-tetramethyl-5,6,7,8-tetrahydro-naphthalen-2-yl)-vinyl]-thiophene-2-carboxylic Acid]",38,42,18,42
176 to 177,"CCCCCc1cc2c(cc1/C=C/c1ccc(C(=O)O)s1)C(C)(C)CCC2(C)C [Example 9.2, (E)-5-[2-(3-pentyl-5,5,8,8-tetramethyl-5,6,7,8-tetrahydro-naphthalen-2-yl)-vinyl]thiophene-2-carboxylic acid]",,,,
